# From patent publication US20170037028A1 (BAYER PHARMA AKTIENGESELLSCHAFT, priority 2013, published 2017)
# Target: T1, GLUT1 (Homo sapiens, UniProt P11166)
# T1 sequence (P11166 1-492): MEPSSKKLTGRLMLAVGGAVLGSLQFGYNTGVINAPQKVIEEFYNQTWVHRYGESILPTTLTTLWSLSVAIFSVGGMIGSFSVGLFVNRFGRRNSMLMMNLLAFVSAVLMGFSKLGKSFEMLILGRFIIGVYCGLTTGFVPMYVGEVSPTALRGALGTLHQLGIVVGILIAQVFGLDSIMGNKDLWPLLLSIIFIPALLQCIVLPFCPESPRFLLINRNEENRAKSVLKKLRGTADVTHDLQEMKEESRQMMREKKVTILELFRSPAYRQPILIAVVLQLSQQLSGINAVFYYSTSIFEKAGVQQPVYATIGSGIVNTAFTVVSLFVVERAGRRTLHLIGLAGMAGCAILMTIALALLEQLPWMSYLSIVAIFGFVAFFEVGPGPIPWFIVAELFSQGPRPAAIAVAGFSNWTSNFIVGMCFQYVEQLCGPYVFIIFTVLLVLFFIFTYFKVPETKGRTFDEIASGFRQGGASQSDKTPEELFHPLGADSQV
# Assay: Indirect measurement of GLUT1 activity by quantification of intracellular ATP levels (glucose induced ATP increase)
# Type: cell-based
# Set-up: endogenous in cells; host or cells: DLD1 or CHO-K1
# Details: read-out: IC50 regarding glucose induced ATP increase (GLUT1 inhibition)
# Method in brief: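 DLD1 or CHO-K1 cells were starved overnight in glucose-free medium with 1% FCS, then combined with an oxidative phosphorylation inhibitor. GLUT1 activity was read as glucose-induced ATP increase, GLUT2 as fructose-induced. Intracellular ATP was quantified by CellTiter-Glo luminescence.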
row,IC50 [nM],SMILES
1,5.4,Cc1c(NC(=O)c2cc(C(N)=O)nc3cc(F)ccc23)c(C(F)(F)F)nn1Cc1ccc(OC(F)(F)F)cc1 [Example 1466]
2,7.6,Cc1c(NC(=O)c2cc(C(N)=O)nc3cccc(F)c23)c(C(F)(F)F)nn1Cc1ccc(OC(F)(F)F)cc1 [Example 1467]
3,12.9,Cc1c(NC(=O)c2cc(C(N)=O)nc3cc(F)c(Cl)cc23)c(C(F)(F)F)nn1Cc1ccc(OC(F)(F)F)cc1 [Example 1468]
4,5.5,Cc1nn(Cc2ccc(F)c(F)c2)c(C)c1NC(=O)c1cc(C(N)=O)nc2ccc(Br)cc12 [Example 1469]
5,2.8,Cc1nn(Cc2ccc(F)c(F)c2)c(C)c1NC(=O)c1cc(C(N)=O)nc2cc(F)ccc12 [Example 1470]
6,12.3,Cc1nn(Cc2ccc(F)c(F)c2)c(C)c1NC(=O)c1cc(C(N)=O)nc2cccc(F)c12 [Example 1471]
7,0.9,Cc1nn(Cc2ccc(F)c(F)c2)c(C)c1NC(=O)c1cc(C(N)=O)nc2cc(F)c(Cl)cc12 [Example 1472]
8,5.2,Cc1cccc(Cn2nc(C)c(NC(=O)c3cc(C(N)=O)nc4cc(F)c(Cl)cc34)c2C)c1 [Example 1473]
9,2.1,Cc1cccc(Cn2nc(C)c(NC(=O)c3cc(C(N)=O)nc4cc(F)ccc34)c2C)c1 [Example 1474]
10,8.4,Cc1cccc(Cn2nc(C)c(NC(=O)c3cc(C(N)=O)nc4cccc(F)c34)c2C)c1 [Example 1475]
11,2.9,Cc1cccc(Cn2nc(C)c(NC(=O)c3cc(C(N)=O)nc4cc(F)c(Cl)cc34)c2C)c1 [Example 1476]
12,4.3,Cc1cccc(Cn2nc(C)c(NC(=O)c3cc(C(N)=O)nc4ccc(Br)cc34)c2C)c1 [Example 1477]
13,6.2,Cc1cccc(Cn2nc(C(F)(F)F)c(NC(=O)c3cc(C(N)=O)nc4ccccc34)c2C)c1 [Example 1478]
14,22.7,Cc1cccc(Cn2nc(C(F)(F)F)c(NC(=O)c3cc(C(N)=O)nc4cccc(F)c34)c2C)c1 [Example 1479]
15,10.5,Cc1cccc(Cn2nc(C(F)(F)F)c(NC(=O)c3cc(C(N)=O)nc4cc(F)ccc34)c2C)c1 [Example 1480]
16,5.5,Cc1cccc(Cn2nc(C(F)(F)F)c(NC(=O)c3cc(C(N)=O)nc4cc(F)c(Cl)cc34)c2C)c1 [Example 1481]
17,5.3,Cc1cccc(Cn2nc(C(F)(F)F)c(NC(=O)c3cc(C(N)=O)nc4ccc(Br)cc34)c2C)c1 [Example 1482]
18,48.8,Cc1nn(Cc2ccc(S(C)(=O)=O)cc2)c(C)c1NC(=O)c1cc(C(N)=O)nc2cc(F)ccc12 [Example 1483]
19,23.4,Cc1nn(Cc2ccc(S(C)(=O)=O)cc2)c(C)c1NC(=O)c1cc(C(N)=O)nc2cccc(F)c12 [Example 1484]
20,5.3,Cc1nn(Cc2ccc(S(C)(=O)=O)cc2)c(C)c1NC(=O)c1cc(C(N)=O)nc2cc(F)c(Cl)cc12 [Example 1485]
21,9.6,Cc1nn(Cc2ccc(S(C)(=O)=O)cc2)c(C)c1NC(=O)c1cc(C(N)=O)nc2ccc(Br)cc12 [Example 1486]
22,1.2,Cc1nn(Cc2ccc(F)cc2F)c(C)c1NC(=O)c1cc(C(N)=O)nc2cc(F)ccc12 [Example 1487]

row,IC50 [nM],SMILES
1,6.8,Cc1nn(Cc2ccc(F)cc2F)c(C)c1NC(=O)c1cc(C(N)=O)nc2cccc(F)c12 [Example 1488]
2,6,Cc1nn(Cc2ccc(F)cc2F)c(C)c1NC(=O)c1cc(C(N)=O)nc2cc(F)c(Cl)cc12 [Example 1489]
3,3.7,Cc1nn(Cc2ccc(F)cc2F)c(C)c1NC(=O)c1cc(C(N)=O)nc2ccc(Br)cc12 [Example 1490]
4,41.5,COc1ccccc1Cn1nc(C(F)(F)F)c(NC(=O)c2cc(C(N)=O)nc3cc(F)c(Cl)cc23)c1C [Example 1491]
5,113,COc1ccccc1Cn1nc(C(F)(F)F)c(NC(=O)c2cc(C(N)=O)nc3ccccc23)c1C [Example 1492]
6,69.6,COc1ccccc1Cn1nc(C(F)(F)F)c(NC(=O)c2cc(C(N)=O)nc3cccc(F)c23)c1C [Example 1493]
7,8.3,Cc1ccccc1Cn1nc(C(F)(F)F)c(NC(=O)c2cc(C(N)=O)nc3ccccc23)c1C [Example 1494]
8,7.3,Cc1ccccc1Cn1nc(C(F)(F)F)c(NC(=O)c2cc(C(N)=O)nc3cc(F)ccc23)c1C [Example 1495]
9,6.2,Cc1ccccc1Cn1nc(C(F)(F)F)c(NC(=O)c2cc(C(N)=O)nc3cccc(F)c23)c1C [Example 1496]
10,4.3,Cc1ccccc1Cn1nc(C(F)(F)F)c(NC(=O)c2cc(C(N)=O)nc3cc(F)c(Cl)cc23)c1C [Example 1497]
11,8,Cc1c(NC(=O)c2cc(C(N)=O)nc3ccc(Br)cc23)c(C(F)(F)F)nn1Cc1ccc(OC(F)(F)F)cc1 [Example 1498]
12,13.4,CCc1nc(Cn2nc(C)c(NC(=O)c3cc(C(F)(F)F)nc4ccc(Br)cc34)c2C)no1 [Example 1499]
13,20.1,CCc1nc(Cn2nc(C)c(NC(=O)c3cc(C(N)=O)nc4ccccc34)c2C)no1 [Example 1500]
14,73.7,Cc1nn(Cc2nc(C3CC3)no2)c(C)c1NC(=O)c1cc(C(N)=O)nc2ccccc12 [Example 1501]
15,213,Cc1nn(Cc2nc(C3CC3)no2)c(C)c1NC(=O)c1cc(C(F)(F)F)nc2ccc(Br)cc12 [Example 1502]
16,93.2,Cc1cc(Cn2nc(C)c(NC(=O)c3cc(C(N)=O)nc4ccccc34)c2C)no1 [Example 1503]
17,42.4,Cc1nn(Cc2ncco2)c(C)c1NC(=O)c1cc(C(N)=O)nc2ccccc12 [Example 1504]
18,323,Cc1cc(Cn2nc(C)c(NC(=O)c3cc(C(F)(F)F)nc4ccc(Br)cc34)c2C)no1 [Example 1505]
19,35.1,Cc1nn(Cc2ncco2)c(C)c1NC(=O)c1cc(C(F)(F)F)nc2ccc(Br)cc12 [Example 1506]
20,711,COCc1noc(Cn2nc(C)c(NC(=O)c3cc(C(F)(F)F)nc4ccc(Br)cc34)c2C)n1 [Example 1507]
21,107,COCc1noc(Cn2nc(C)c(NC(=O)c3cc(C(N)=O)nc4ccccc34)c2C)n1 [Example 1508]
22,16.3,CNC(=O)c1nc(Cn2nc(C)c(NC(=O)c3cc(C(N)=O)nc4ccccc34)c2C)no1 [Example 1509]

row,IC50 [nM],SMILES
1,20,CCCS(=O)(=O)N1CCC(Cn2nc(C)c(NC(=O)c3cc(C(N)=O)nc4ccccc34)c2C)CC1 [Example 1510]
2,31.8,CCCCS(=O)(=O)N1CCC(Cn2nc(C)c(NC(=O)c3cc(C(N)=O)nc4ccccc34)c2C)CC1 [Example 1511]
3,105,Cc1nn(CC2CCN(S(=O)(=O)CCCC#N)CC2)c(C)c1NC(=O)c1cc(C(N)=O)nc2ccccc12 [Example 1512]
4,60.8,COCCCS(=O)(=O)N1CCC(Cn2nc(C)c(NC(=O)c3cc(C(N)=O)nc4ccccc34)c2C)CC1 [Example 1513]
5,493,Cc1nn(CC2CCN(S(=O)(=O)c3cccnc3)CC2)c(C)c1NC(=O)c1cc(C(N)=O)nc2ccccc12 [Example 1514]
6,319,Cc1nonc1Cn1nc(C)c(NC(=O)c2cc(C(N)=O)nc3ccccc23)c1C [Example 1515]
7,26.1,Cc1nn(CC2CCN(S(=O)(=O)C3CC3)CC2)c(C)c1NC(=O)c1cc(C(N)=O)nc2ccccc12 [Example 1516]
8,98.7,Cc1nn(CC2CCN(S(=O)(=O)C(C)C)CC2)c(C)c1NC(=O)c1cc(C(N)=O)nc2ccccc12 [Example 1517]
9,69.2,Cc1nn(CC2CCN(S(=O)(=O)C3CCCC3)CC2)c(C)c1NC(=O)c1cc(C(N)=O)nc2ccccc12 [Example 1518]
10,644,Cc1nn(CC2CCN(S(=O)(=O)c3ccccc3)CC2)c(C)c1NC(=O)c1cc(C(N)=O)nc2ccccc12 [Example 1519]
11,747,Cc1nonc1Cn1nc(C)c(NC(=O)c2cc(C(F)(F)F)nc3ccc(Br)cc23)c1C [Example 1520]
12,1670,Cc1nn(Cc2noc(C(=O)N(C)C)n2)c(C)c1NC(=O)c1cc(C(N)=O)nc2ccccc12 [Example 1521]
13,600,Cc1nn(Cc2noc(C(=O)N(C)C)n2)c(C)c1NC(=O)c1cc(C(F)(F)F)nc2ccc(Br)cc12 [Example 1522]
14,4140,Cc1nn(Cc2nccn2C)c(C)c1NC(=O)c1cc(C(N)=O)nc2ccccc12 [Example 1523]
15,2020,Cc1nn(Cc2nccn2C)c(C)c1NC(=O)c1cc(C(F)(F)F)nc2ccc(Br)cc12 [Example 1524]
16,4810,COc1cc(C(=O)Nc2c(C)nn(CC3CNC(=O)O3)c2C)c2ccccc2n1 (stereo not drawn) [Example 1525]
17,556,COc1cc(C(=O)Nc2c(C)nn(Cc3ccn(C)n3)c2C)c2ccccc2n1 [Example 1526]
18,228,COc1cc(C(=O)Nc2c(C)nn(Cc3cn4ccccc4n3)c2C)c2ccccc2n1 [Example 1527]
19,59.4,Cc1nn(Cc2cn3ccccc3n2)c(C)c1NC(=O)c1cc(C(F)(F)F)nc2ccc(Br)cc12 [Example 1528]
20,402,Cc1c(NC(=O)c2cc(C(N)=O)nc3cc(F)ccc23)c(C(F)(F)F)nn1Cc1ncco1 [Example 1529]
21,893,COc1cc(C(=O)Nc2c(C)nn(Cc3csc(N4CCOCC4)n3)c2C)c2ccccc2n1 [Example 1530]
22,37.6,CCc1cc(Cn2nc(C)c(NC(=O)c3cc(C(N)=O)nc4ccccc34)c2C)on1 [Example 1531]
